# Data published in patent US9492471B2, “Methods of treating a disease or disorder associated with Bruton'S Tyrosine Kinase” (Celgene Avilomics Research, Inc., priority 2013, dated 2016).
# Read-outs that look alike come from different tables or passages of the source.
# How the values were obtained:
# Assay in all cases: HotSpot kinase profiling
# Format in all cases: biochemical
# ALK1/ACVRL1 = target: T1, ALK1/ACVRL1 (Homo sapiens, UniProt P37023)
# T1 construct: purchased Reaction Biology Corp
# T1 sequence (P37023 22-503): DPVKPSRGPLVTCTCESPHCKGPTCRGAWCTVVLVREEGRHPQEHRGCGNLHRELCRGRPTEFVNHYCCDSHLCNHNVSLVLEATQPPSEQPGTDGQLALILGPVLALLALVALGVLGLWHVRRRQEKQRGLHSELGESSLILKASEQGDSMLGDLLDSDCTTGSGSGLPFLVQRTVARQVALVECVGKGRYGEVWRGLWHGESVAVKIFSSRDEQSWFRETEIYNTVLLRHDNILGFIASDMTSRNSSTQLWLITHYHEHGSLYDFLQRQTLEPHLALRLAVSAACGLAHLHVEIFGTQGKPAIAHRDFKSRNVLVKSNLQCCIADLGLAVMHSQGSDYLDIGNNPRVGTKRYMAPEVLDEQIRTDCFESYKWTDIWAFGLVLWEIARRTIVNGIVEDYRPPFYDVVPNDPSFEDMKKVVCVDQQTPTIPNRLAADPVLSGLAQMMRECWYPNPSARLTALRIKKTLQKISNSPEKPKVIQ
# Method in brief: (§1)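 Radio-isotope P81 filtration format. Substrate + required cofactors in reaction buffer, kinase added, 2 h RT. Stop, wash with 0.1% phosphoric acid, detect. % inhibition vs DMSO; mean of duplicates where repeated.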
# EPHA3 = target: T2, EPHA3 (Homo sapiens, UniProt P29320)
# T2 construct: purchased Reaction Biology Corp
# T2 sequence (P29320 21-983): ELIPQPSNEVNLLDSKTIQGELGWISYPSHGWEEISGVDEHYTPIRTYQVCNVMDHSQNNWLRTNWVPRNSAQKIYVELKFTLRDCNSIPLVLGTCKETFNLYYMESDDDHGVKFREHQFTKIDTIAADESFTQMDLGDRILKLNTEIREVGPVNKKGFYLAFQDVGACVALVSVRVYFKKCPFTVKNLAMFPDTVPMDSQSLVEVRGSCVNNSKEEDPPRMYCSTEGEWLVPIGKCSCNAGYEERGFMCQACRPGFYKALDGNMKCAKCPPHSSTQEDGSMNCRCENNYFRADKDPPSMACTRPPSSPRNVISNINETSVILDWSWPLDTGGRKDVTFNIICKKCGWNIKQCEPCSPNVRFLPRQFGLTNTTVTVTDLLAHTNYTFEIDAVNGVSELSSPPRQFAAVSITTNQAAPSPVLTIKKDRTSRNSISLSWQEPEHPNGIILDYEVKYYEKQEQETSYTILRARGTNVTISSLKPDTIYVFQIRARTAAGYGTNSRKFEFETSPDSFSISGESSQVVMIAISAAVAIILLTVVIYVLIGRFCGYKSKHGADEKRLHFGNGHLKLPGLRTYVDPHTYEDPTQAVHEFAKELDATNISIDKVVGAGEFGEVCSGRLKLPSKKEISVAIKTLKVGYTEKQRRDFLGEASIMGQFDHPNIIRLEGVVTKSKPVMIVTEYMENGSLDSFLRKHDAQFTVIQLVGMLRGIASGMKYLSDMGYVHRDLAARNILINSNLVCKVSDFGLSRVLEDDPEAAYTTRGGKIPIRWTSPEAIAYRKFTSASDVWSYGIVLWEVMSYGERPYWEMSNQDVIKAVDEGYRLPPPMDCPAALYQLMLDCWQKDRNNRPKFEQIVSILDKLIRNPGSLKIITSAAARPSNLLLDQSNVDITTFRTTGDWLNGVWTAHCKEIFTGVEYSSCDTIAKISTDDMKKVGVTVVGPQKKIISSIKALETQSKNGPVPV
# Method in brief: as §1
# ULK2 = target: T3, ULK2 (Homo sapiens, UniProt Q8IYT8)
# T3 construct: purchased Reaction Biology Corp
# T3 sequence (Q8IYT8 1-1036): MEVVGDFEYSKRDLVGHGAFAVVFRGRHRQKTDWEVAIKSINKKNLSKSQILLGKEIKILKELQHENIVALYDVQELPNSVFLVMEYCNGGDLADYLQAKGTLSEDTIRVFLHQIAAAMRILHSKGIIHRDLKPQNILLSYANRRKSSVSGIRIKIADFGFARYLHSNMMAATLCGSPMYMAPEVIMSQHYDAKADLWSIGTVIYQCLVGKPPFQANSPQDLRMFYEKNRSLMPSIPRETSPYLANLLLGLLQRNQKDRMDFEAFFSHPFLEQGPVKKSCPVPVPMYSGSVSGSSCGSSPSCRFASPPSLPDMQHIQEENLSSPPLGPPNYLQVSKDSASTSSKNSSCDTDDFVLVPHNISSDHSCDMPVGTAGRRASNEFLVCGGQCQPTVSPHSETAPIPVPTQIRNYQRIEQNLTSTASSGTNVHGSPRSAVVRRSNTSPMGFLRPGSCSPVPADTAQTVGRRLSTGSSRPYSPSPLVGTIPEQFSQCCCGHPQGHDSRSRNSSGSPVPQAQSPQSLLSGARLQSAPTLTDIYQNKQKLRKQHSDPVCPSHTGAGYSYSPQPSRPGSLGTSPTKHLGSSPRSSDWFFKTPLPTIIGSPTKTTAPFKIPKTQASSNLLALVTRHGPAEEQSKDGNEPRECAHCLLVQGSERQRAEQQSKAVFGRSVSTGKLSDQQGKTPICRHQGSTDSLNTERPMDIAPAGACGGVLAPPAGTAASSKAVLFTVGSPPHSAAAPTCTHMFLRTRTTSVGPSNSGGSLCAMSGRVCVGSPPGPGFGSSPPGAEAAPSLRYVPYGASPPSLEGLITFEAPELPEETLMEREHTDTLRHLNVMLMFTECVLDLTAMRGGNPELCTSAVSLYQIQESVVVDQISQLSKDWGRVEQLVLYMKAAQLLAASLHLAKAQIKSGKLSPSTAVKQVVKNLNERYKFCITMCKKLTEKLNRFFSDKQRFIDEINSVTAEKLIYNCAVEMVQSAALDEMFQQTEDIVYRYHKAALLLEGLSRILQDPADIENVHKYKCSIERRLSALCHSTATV
# Method in brief: as §1
# [1] = read-out: % Enzyme Activity (relative to DMSO controls) Run 1
# [2] = read-out: % Enzyme Activity (relative to DMSO controls) Run 2
structure (smiles),measurement,setting,value
C=CC(=O)Nc1cccc(Nc2nc(Nc3ccc(OCCOC)c(F)c3)ncc2F)c1 [Compound 2],inhibition at 3 µM,ALK1/ACVRL1,-24.4%
same,remaining activity at 3 µM,ALK1/ACVRL1; [1],125%
same,remaining activity at 3 µM,ALK1/ACVRL1; [2],124%
same,inhibition at 3 µM,EPHA3,1.81%
same,remaining activity at 3 µM,EPHA3; [1],96.2%
same,remaining activity at 3 µM,EPHA3; [2],100%
same,inhibition at 3 µM,ULK2,-5.74%
same,remaining activity at 3 µM,ULK2; [1],102%
same,remaining activity at 3 µM,ULK2; [2],109%
